From the supplement of paper PMC10307832

Columns and labels:
Test in all cases: relative viability (nuclei count vs DMSO), 5 days (fraction); higher = more cells survive
Trametinib + Pemetrexed = compound: CC(=O)Nc1cccc(-n2c(=O)n(C3CC3)c(=O)c3c(Nc4ccc(I)cc4F)n(C)c(=O)c(C)c32)c1 [Trametinib] + Nc1nc2[nH]cc(CCc3ccc(C(=O)N[C@@H](CCC(=O)O)C(=O)O)cc3)c2c(=O)[nH]1 [Pemetrexed] (partner 0.2 µM)
In short: (§1)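 Relative viability divides the nuclei count in treated wells by that in vehicle wells. Lung cancer cell lines were seeded in 1536-well plates, dosed by pin tool the next day, and fixed and stained after 5 days in one step with final 0.05% Triton X-100, 1% formaldehyde and 1 ug/ml Hoechst. Dosing was a single drug or a fixed anchor-drug dose plus five library-drug doses (not always all listed) in √10 steps, and values are medians of duplicate plates imaged at 4×.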

[1] = compound: CN1C=C(C2=CC=CC=C21)/C=C\3/C4=C(C=CC=N4)NC3=O + CC(=O)c1c(C)c2cnc(Nc3ccc(N4CCNCC4)cn3)nc2n(C2CCCC2)c1=O [Palbociclib] (partner 0.5 µM)
In short: as §1

[2] = compound: CN1C=C(C2=CC=CC=C21)/C=C\3/C4=C(C=CC=N4)NC3=O + CC(C)C[C@H](NC(=O)[C@H](Cc1ccccc1)NC(=O)c1cnccn1)B(O)O [Bortezomib] (partner 0.002 µM)
In short: as §1

[3] = compound: CN1C=C(C2=CC=CC=C21)/C=C\3/C4=C(C=CC=N4)NC3=O + CS(=O)(=O)N1CCN(Cc2cc3nc(-c4cccc5[nH]ncc45)nc(N4CCOCC4)c3s2)CC1 [Pictilisib] (partner 1 µM)
In short: as §1

Cell Line | relative viability (Trametinib + Pemetrexed; first compound 0.0025 µM) | relative viability (Trametinib + Pemetrexed; first compound 0.007906 µM) | relative viability (Trametinib + Pemetrexed; first compound 0.025 µM) | relative viability (Trametinib + Pemetrexed; first compound 0.07906 µM) | relative viability (Trametinib + Pemetrexed; first compound 0.25 µM) | relative viability ([1]; first compound 0.02 µM) | relative viability ([1]; first compound 0.06325 µM) | relative viability ([1]; first compound 0.2 µM) | relative viability ([1]; first compound 0.6325 µM) | relative viability ([1]; first compound 2 µM) | relative viability ([2]; first compound 0.02 µM) | relative viability ([2]; first compound 0.06325 µM) | relative viability ([2]; first compound 0.2 µM) | relative viability ([2]; first compound 0.6325 µM) | relative viability ([2]; first compound 2 µM) | relative viability ([3]; first compound 0.02 µM) | relative viability ([3]; first compound 0.06325 µM) | relative viability ([3]; first compound 0.2 µM) | relative viability ([3]; first compound 0.6325 µM) | relative viability ([3]; first compound 2 µM)
201T | 0.394 | 0.362 | 0.338 | 0.341 | 0.371 | 0.321 | 0.359 | 0.377 | 0.35 | 0.323 | 1.02 | 1.18 | 1.07 | 1.16 | 1.09 | 0.64 | 0.649 | 0.629 | 0.626 | 0.613
A549 |  |  |  |  |  |  |  |  |  |  |  |  |  |  |  | 0.544 | 0.474 | 0.465 | 0.46 | 0.529
A-427 | 1.08 | 1.1 | 0.977 | 0.839 | 0.679 | 0.577 | 0.492 |  | 0.514 | 0.572 | 0.939 | 0.9 |  | 1.03 | 1.21 | 0.726 | 0.707 |  | 0.679 | 0.742
ABC-1 |  |  |  |  |  | 0.52 | 0.76 | 0.789 | 0.593 | 0.738 | 0.368 | 0.257 | 0.285 | 0.299 | 0.372 | 0.774 | 0.681 | 0.682 | 0.663 | 0.608
BEN | 0.706 | 0.752 | 0.511 | 0.45 | 0.646 | 0.453 | 0.409 | 0.465 | 0.48 | 0.49 | 0.82 | 0.557 | 0.64 | 0.593 | 0.917 | 0.541 | 0.596 | 0.504 | 0.478 | 0.532
CAL-12T | 1.21 | 1.15 | 0.753 | 0.483 | 0.589 | 0.501 | 0.411 | 0.411 | 0.419 | 0.499 | 0.904 | 0.882 | 0.945 | 1.08 | 1.04 | 0.556 | 0.394 | 0.26 | 0.447 | 0.326
COR-L23 | 0.192 | 0.211 | 0.23 | 0.214 | 0.209 | 0.314 | 0.292 | 0.28 | 0.237 | 0.299 | 1.01 | 0.953 | 1.19 | 0.866 | 1.04 | 0.721 | 0.707 | 0.781 | 0.737 | 0.887
COR-L 105 | 0.984 | 0.825 | 0.69 | 0.488 | 0.42 | 0.428 | 0.418 | 0.419 | 0.373 | 0.497 | 0.743 | 0.749 | 0.693 | 0.675 | 0.811 | 0.412 | 0.383 | 0.385 | 0.364 | 0.364
Calu-6 |  |  |  |  |  |  |  |  |  |  | 0.985 | 0.923 | 0.87 | 0.946 | 1.04 | 0.841 | 0.776 | 0.9 | 0.936 | 0.897
ChaGo-K-1 | 0.281 | 0.253 | 0.261 | 0.259 | 0.248 | 0.922 | 0.936 | 0.853 | 0.89 | 0.909 | 0.902 | 0.94 |  | 0.987 | 0.979 | 0.607 | 0.62 |  | 0.403 | 0.571
EBC-1 |  |  |  |  |  |  |  |  |  |  | 0.473 | 0.524 | 0.51 | 0.572 | 0.494 | 0.242 | 0.256 | 0.283 | 0.287 | 0.309
EKVX | 0.345 | 0.381 | 0.402 | 0.312 | 0.358 | 0.323 |  |  | 0.273 | 0.732 | 1.05 | 0.79 | 0.946 | 1.04 | 0.972 | 0.374 | 0.384 | 0.334 | 0.345 | 0.361
EMC-BAC-2 | 0.547 | 0.489 | 0.572 | 0.544 | 0.56 | 0.471 | 0.513 | 0.504 | 0.521 | 0.535 | 0.901 | 1.05 | 1.01 | 1.05 | 1.14 | 0.499 | 0.521 | 0.524 | 0.521 | 0.554
EPLC-272H | 0.318 | 0.328 | 0.287 | 0.294 | 0.27 | 0.331 | 0.271 |  | 0.336 | 0.274 | 0.959 | 0.704 |  | 0.918 | 0.873 | 0.294 | 0.285 |  | 0.27 | 0.304
H3255 | 0.538 | 0.506 | 0.514 | 0.473 | 0.463 | 0.33 | 0.327 | 0.309 | 0.317 | 0.296 | 0.935 | 0.843 | 0.704 | 0.701 | 0.655 | 0.41 | 0.453 | 0.395 | 0.501 | 0.475
HARA | 0.224 | 0.226 | 0.254 | 0.212 | 0.219 | 0.257 | 0.297 | 0.192 | 0.257 | 0.227 | 1.06 | 1.09 | 0.87 | 1.18 | 1.14 | 0.55 | 0.391 | 0.407 | 0.254 | 0.379
HCC-15 | 0.21 | 0.221 | 0.227 | 0.186 | 0.221 | 0.708 | 0.733 | 0.724 | 0.685 | 0.746 | 0.972 | 0.939 | 1.09 | 1.09 | 1.18 | 0.717 | 0.639 | 0.775 | 0.666 | 0.771
HCC-44 | 0.647 | 0.702 | 0.734 | 0.763 | 0.772 | 0.902 | 0.959 | 0.956 | 0.934 | 0.913 | 0.888 | 0.8 | 0.858 | 0.756 | 0.847 | 0.47 | 0.558 | 0.475 | 0.564 | 0.485
